In US10508103B2, “Benzimidazole-linked indole compound acting as novel divalent IAP antagonist” (MEDSHINE DISCOVERY INC., priority 2016, dated 2019):

Columns and labels:
[1] = tested on: NF-κB Luciferase Reporter Hela cells; assay: TNF-α inducing NF-κB reporter; format: cell-based; settings: Homo sapiens, 6 h, Bright-Glo luciferase
Experimental: Biological Assay 2: TNF-α inducing NF-κB reporter
• 1) tested compounds were added into DMSO to give parent liquor (10 mM); • 2) reference compound Birinapant (32 μL, 10 mM) was added into DMSO (128 μL) to give a solution (2 mM); • 3) 0.5 μL reference compound Birinapant (2 mM) and tested compounds (10 mM) were taken by Echo and added into Greiner 96 well black cell culture plate respectively. The initial concentration of the reference compound and tested compound was 10 μM and 50 μM, respectively. Then, the reference compound and tested compounds were diluted at 9 points in series by 5-fold; and every plate was repeated for 3 times. • 4) the reference compound WXFL2012A001 (Birinapant) (final concentration: 10 μM) as HPE and DMSO (final concentration: 0.5%) as ZPE.
• 5) purpose of the three repeated plates: the first plate was used for testing compounds' activity;
the second plate was used for testing cytotoxicity of the compounds; the third plate was used for solution replacement of the first and second plates: mixing inducer TNF-α and medium containing 0.1% FBS, and then being added to the third plate and the resultant mixture was transferred to the first plate where supernatants had been removed.
• 1) removing medium in NF-iBLuciferase Reporter Hela cell culture flask and washing cell once with PBS (10 mL) • 2) adding 0.25% pancreatin (3 mL) to T150 cell culture flask, and placinginto cell incubator (37° C., 5%CO2) and dissociating cell for 3 min, and then medium (10 mL) was added to end dissociation and blowing cells with electric pipette until cells were dispersed into single cell. • 3) Calculating cell density with cell counter Countstar • 4) Adjusting NF-κB Luciferase Reporter Hela density with medium to 2.0×10^5 cells/mL • 5) Adding cells to two Greiner 96 well black cell culture plates containing compounds, (100 μL per well (2.0×10^4 cells/well)), one plate was used for testing compounds' activity, another was used for testing cytotoxicity of the compounds. • 6) Placing cell culture plates into cell incubator (37° C., 5%CO2) and incubatingfor 24 h Second Day TNF-α Inducing • 1) TNF-α (100 μg/mL) was diluted into 20 ng/mL with 0.1% FBS medium and transferredto the third plate with 100 μL per well • 2) Removing medium of the first 96 well black cell culture plate (compound activity testing plate) after 24 h, replacing with fresh medium containing the compound and 20 ng/mL TNF-α in the third plate • 3) Placing cell culture plate into cell incubator (37° C., 5% CO2) and incubatingfor 6 h • 4) after 6 h, compound's activity in the first plate was tested according to Bright-Glo (Promega) manual method, luciferase signal in each well was tested by Envision plate reader • 5) compound's cytotoxicity in the second plate was tested according to ATPlite 1Step (Perkin Elmer) manual method, luciferase signal in each well was tested by Envision plate reader • 6) analyzing with software to obtain EC50 of compound.

[2] = molecular target: cIAP2-BIR3 Protein (Homo sapiens (Human), UniProt Q13489); assay: Fluorescence polarization affinity of compounds to cIAP2-BIR3; format: binding; settings: cIAP2-BIR3 60 nM; 5 nM ARPFAQ-K(5-FAM)-NH2 probe; FP; pH 7.5; read-out: affinity to target protein in vitro, cIAP2-BIR3 Protein (IC50)
Experimental: (§1) Biological Assay 1: affinity of compounds to cIAP1-BIR3, cIAP2-BIR3, XIAP-BIR3 • 1) Affinity of compounds listed in table to cIAP1-BIR3, Ciap2-BIR3, XIAP-BIR3 was tested referring to Nikolovska-Colesks, Z. et.Al. (Analytical Biochemistry,2004,232:261-273) to obtain IC50 value. Generally speaking, in 10-dose IC50 mode, IAP antagonists with different concentrations were diluted in series by 3-fold and fluorescence labelled ARPFAQ-K (5-FAM)-NH2 peptide was used as probe to test compounds binding to protein BIR3 domain. • 2) Test condition: cIAP1-BIR3: 20 nM; cIAP2-BIR3: 60 nM; XIAP-BIR3: 30 nM; 5 nM probe in 100 mM tripotassium phosphate, pH 7.5, 0.1 mg/mL BSA, 0.005% Triton X100 and 0.5% DMSO. • 3) Test procedure: compounds were added into protein with different concentrations by using ECHO (LabCyte), and then the mixture was preincubated for 15 min. The probe was added and the final concentration was 5 nM. After incubating for 60 min, FP was tested and mP was calculated. Experiment results were list in table 1.

[3] = molecular target: cIAP1-BIR3 Protein (Homo sapiens (Human), UniProt Q13490); assay: Fluorescence polarization affinity of compounds to cIAP1-BIR3; format: binding; settings: cIAP1-BIR3 20 nM; 5 nM ARPFAQ-K(5-FAM)-NH2 probe; FP; pH 7.5; read-out: affinity to target protein in vitro, cIAP1-BIR3 Protein (IC50)
Experimental: as §1

[4] = molecular target: XIAP-BIR3 Protein (Homo sapiens (Human), UniProt P98170); assay: Fluorescence polarization affinity of compounds to XIAP-BIR3; format: binding; settings: XIAP-BIR3 30 nM; 5 nM ARPFAQ-K(5-FAM)-NH2 probe; FP; pH 7.5; read-out: affinity to target protein in vitro, XIAP-BIR3 Protein (IC50)
Experimental: as §1

[5] = Table 4, 20 ng/mL TNF-α, exact values with control Birinapant
[6] = Table 3, 20 ng/mL TNF-α, values given as ranges

Sequence of cIAP2-BIR3 Protein (Q13489 238-349): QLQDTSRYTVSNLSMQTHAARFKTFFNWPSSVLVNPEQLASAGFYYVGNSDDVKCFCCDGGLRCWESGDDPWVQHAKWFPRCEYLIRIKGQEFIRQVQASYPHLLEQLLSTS
Sequence of XIAP-BIR3 Protein (P98170 241-356): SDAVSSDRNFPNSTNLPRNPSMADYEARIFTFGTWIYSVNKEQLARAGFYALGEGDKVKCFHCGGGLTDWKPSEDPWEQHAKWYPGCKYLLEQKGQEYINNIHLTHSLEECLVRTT
Sequence of cIAP1-BIR3 Protein (Q13490 253-363): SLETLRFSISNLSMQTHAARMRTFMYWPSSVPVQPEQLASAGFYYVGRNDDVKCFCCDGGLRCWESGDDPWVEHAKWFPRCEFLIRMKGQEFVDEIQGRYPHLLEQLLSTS

EC50 [1, 6] [nM] | SMILES | also measured
– | CC[C@H](NC(=O)[C@H](C)NC)C(=O)N1C[C@@H](O)C[C@H]1Cc1c(-c2[nH]c3cc(F)ccc3c2C[C@@H]2C[C@H](O)CN2C(=O)[C@H](CC)NC(=O)[C@H](C)NC)[nH]c2cc(F)ccc12 [Birinapant, reference compound] | EC50 [1, 5]: 7.05 nM
< 10 | CN[C@@H](C)C(=O)N[C@H](C(=O)N1CCC[C@H]1Cc1c(-c2nc3cc(F)ccc3n2C[C@@H]2CCCN2C(=O)[C@@H](NC(=O)[C@H](C)NC)C(C)C)[nH]c2cc(F)ccc12)C(C)C [Embodiment 1] | IC50 [2]: 10 to 100 nM; IC50 [3]: < 10 nM; IC50 [4]: 10 to 100 nM; EC50 [1, 5]: 7.11 nM
10 to 100 | CC[C@H](NC(=O)[C@H](C)NC)C(=O)N1CCC[C@H]1Cc1c(-c2nc3cc(F)ccc3n2C[C@@H]2CCCN2C(=O)[C@@H](NC(=O)[C@H](C)NC)C(C)C)[nH]c2cc(F)ccc12 [Embodiment 2] | IC50 [2]: 10 to 100 nM; IC50 [3]: < 10 nM; IC50 [4]: 10 to 100 nM
< 10 | CC[C@H](NC(=O)[C@H](C)NC)C(=O)N1CCC[C@H]1Cc1c(-c2nc3cc(F)ccc3n2C[C@@H]2CCCN2C(=O)[C@@H](NC(=O)[C@H](C)NC)C(C)(C)C)[nH]c2cc(F)ccc12 [Embodiment 3] | –
10 to 100 | CC[C@H](NC(=O)[C@H](C)NC)C(=O)N1CCC[C@H]1Cc1c(-c2nc3cc(F)ccc3n2C[C@@H]2CCCN2C(=O)[C@@H](NC(=O)[C@H](C)NC)C2CCCCC2)[nH]c2cc(F)ccc12 [Embodiment 4] | –
10 to 100 | CC[C@H](NC(=O)[C@H](C)NC)C(=O)N1CCC[C@H]1Cn1c(-c2[nH]c3cc(F)ccc3c2C[C@@H]2CCCN2C(=O)[C@@H](NC(=O)[C@H](C)NC)C(C)(C)C)nc2cc(F)ccc21 [Embodiment 5] | –
10 to 100 | CC[C@H](NC(=O)[C@H](C)NC)C(=O)N1CCC[C@H]1Cn1c(-c2[nH]c3cc(F)ccc3c2C[C@@H]2CCCN2C(=O)[C@@H](NC(=O)[C@H](C)NC)C2CCCCC2)nc2cc(F)ccc21 [Embodiment 6] | –
10 to 100 | CCC[C@H](NC(=O)[C@H](C)NC)C(=O)N1CCC[C@H]1Cc1c(-c2nc3cc(F)ccc3n2C[C@@H]2CCCN2C(=O)[C@@H](NC(=O)[C@H](C)NC)C(C)C)[nH]c2cc(F)ccc12 [Embodiment 7] | –
< 10 | CCC[C@H](NC(=O)[C@H](C)NC)C(=O)N1CCC[C@H]1Cc1c(-c2nc3cc(F)ccc3n2C[C@@H]2CCCN2C(=O)[C@@H](NC(=O)[C@H](C)NC)C(C)(C)C)[nH]c2cc(F)ccc12 [Embodiment 8] | –
10 to 100 | CCC[C@H](NC(=O)[C@H](C)NC)C(=O)N1CCC[C@H]1Cc1c(-c2nc3cc(F)ccc3n2C[C@@H]2CCCN2C(=O)[C@@H](NC(=O)[C@H](C)NC)C2CCCCC2)[nH]c2cc(F)ccc12 [Embodiment 9] | –
10 to 100 | CCC[C@H](NC(=O)[C@H](C)NC)C(=O)N1CCC[C@H]1Cn1c(-c2[nH]c3cc(F)ccc3c2C[C@@H]2CCCN2C(=O)[C@@H](NC(=O)[C@H](C)NC)C(C)C)nc2cc(F)ccc21 [Embodiment 10] | –
10 to 100 | CCC[C@H](NC(=O)[C@H](C)NC)C(=O)N1CCC[C@H]1Cn1c(-c2[nH]c3cc(F)ccc3c2C[C@@H]2CCCN2C(=O)[C@@H](NC(=O)[C@H](C)NC)C(C)(C)C)nc2cc(F)ccc21 [Embodiment 11] | –
10 to 100 | CCC[C@H](NC(=O)[C@H](C)NC)C(=O)N1CCC[C@H]1Cn1c(-c2[nH]c3cc(F)ccc3c2C[C@@H]2CCCN2C(=O)[C@@H](NC(=O)[C@H](C)NC)C2CCCCC2)nc2cc(F)ccc21 [Embodiment 12] | –
10 to 100 | CCC[C@H](NC(=O)[C@H](C)NC)C(=O)N1C[C@@H](F)C[C@H]1Cc1c(-c2nc3cc(F)ccc3n2C[C@@H]2C[C@H](F)CN2C(=O)[C@H](CCC)NC(=O)[C@H](C)NC)[nH]c2cc(F)ccc12 [Embodiment 15] | –
< 10 | CCC[C@H](NC(=O)[C@H](C)NC)C(=O)N1C[C@@H](F)C[C@H]1Cc1c(-c2nc3cc(F)ccc3n2C[C@@H]2C[C@H](F)CN2C(=O)[C@@H](NC(=O)[C@H](C)NC)C(C)(C)C)[nH]c2cc(F)ccc12 [Embodiment 33] | –
< 10 | CCC[C@H](NC(=O)[C@H](C)NC)C(=O)N1C[C@@H](F)C[C@H]1Cc1c(-c2nc3cc(F)ccc3n2C[C@@H]2C[C@H](F)CN2C(=O)[C@@H](NC(=O)[C@H](C)NC)C2CCCCC2)[nH]c2cc(F)ccc12 [Embodiment 34] | –
< 10 | CCC[C@H](NC(=O)[C@H](C)NC)C(=O)N1C[C@@H](F)C[C@H]1Cn1c(-c2[nH]c3cc(F)ccc3c2C[C@@H]2C[C@H](F)CN2C(=O)[C@@H](NC(=O)[C@H](C)NC)C(C)(C)C)nc2cc(F)ccc21 [Embodiment 35] | –
10 to 100 | CC[C@H](NC(=O)[C@H](C)NC)C(=O)N1CCC[C@H]1Cc1c(-c2nc3cc(F)ccc3n2C[C@@H]2C[C@H](F)CN2C(=O)[C@@H](NC(=O)[C@H](C)NC)C(C)C)[nH]c2cc(F)ccc12 [Embodiment 37] | –
10 to 100 | CC[C@H](NC(=O)[C@H](C)NC)C(=O)N1CCC[C@H]1Cn1c(-c2[nH]c3cc(F)ccc3c2C[C@@H]2C[C@H](F)CN2C(=O)[C@@H](NC(=O)[C@H](C)NC)C(C)C)nc2cc(F)ccc21 [Embodiment 41] | –
10 to 100 | CN[C@@H](C)C(=O)N[C@H](C(=O)N1CC(F)(F)C[C@H]1Cc1c(-c2nc3cc(F)ccc3n2C[C@@H]2CC(F)(F)CN2C(=O)[C@@H](NC(=O)[C@H](C)NC)C(C)C)[nH]c2cc(F)ccc12)C(C)C [Embodiment 45] | –
10 to 100 | CC[C@H](NC(=O)[C@H](C)NC)C(=O)N1CC(F)(F)C[C@H]1Cn1c(-c2[nH]c3cc(F)ccc3c2C[C@@H]2CC(F)(F)CN2C(=O)[C@@H](NC(=O)[C@H](C)NC)C(C)C)nc2cc(F)ccc21 [Embodiment 47] | –
10 to 100 | CC[C@H](NC(=O)[C@H](C)NC)C(=O)N1C[C@@H](F)C[C@H]1Cc1c(-c2nc3cc(F)ccc3n2C[C@@H]2[C@@H](C)[C@@H](C)CN2C(=O)[C@H](CC)NC(=O)[C@H](C)NC)[nH]c2cc(F)ccc12 [Embodiment 48] | –
< 10 | CN[C@@H](C)C(=O)N[C@H](C(=O)N1C[C@@H](F)C[C@H]1Cc1c(-c2nc3cc(F)ccc3n2C[C@@H]2[C@@H](C)[C@@H](C)CN2C(=O)[C@@H](NC(=O)[C@H](C)NC)C(C)C)[nH]c2cc(F)ccc12)C(C)C [Embodiment 49] | –
10 to 100 | CC[C@H](NC(=O)[C@H](C)NC)C(=O)N1C[C@@H](F)C[C@H]1Cc1c(-c2nc3cc(F)ccc3n2C[C@@H]2C[C@H](F)CN2C(=O)[C@@H](NC(=O)[C@H](C)NC)C(C)C)[nH]c2ccccc12 [Embodiment 50] | –
< 10 | CC[C@H](NC(=O)[C@H](C)NC)C(=O)N1C[C@@H](F)C[C@H]1Cc1c(-c2nc3cc(F)ccc3n2C[C@@H]2C[C@H](F)CN2C(=O)[C@@H](NC(=O)[C@H](C)NC)C(C)C)[nH]c2cc(Cl)ccc12 [Embodiment 51] | –
